Columns and labels:
Assay type in all cases: physicochemical
[1] = Solubility test of paliperidone and its salts in methanol (100 mg of sample); details: 100 mg of sample used
Method: (§1) The solubility data of paliperidone and solid state forms of paliperidone salts is furnished in the below table. The 100 mg of sample was used for solubility test.

[2] = Stability of the solid state form (as stated, no test data); details: room temperature, enhanced temperature, relative high humidities, aqueous media
Text: In one embodiment, the process disclosed herein provides stable solid state forms of paliperidone salts. The term “stable solid state form” refers to stability of the solid state form under the standard temperature and humidity conditions of testing of pharmaceutical products, wherein the stability is indicated by preservation of the original polymorphic form.

[3] = Solubility test of paliperidone and its salts in water (100 mg of sample); details: 100 mg of sample used
Method: as §1

| Compound | Solubility Methanol [1] | Stability of solid state form [2] | Solubility Water [3] |
| --- | --- | --- | --- |
| Cc1nc2n(c(=O)c1CCN1CCC(c3noc4cc(F)ccc34)CC1)CCCC2O.O=C(O)/C=C/C(=O)O (stereo not shown) | Insoluble | stable at room temperature, enhanced temperature, at relative high humidities, and in aqueous media |  |
| Cc1nc2n(c(=O)c1CCN1CCC(c3noc4cc(F)ccc34)CC1)CCCC2O (racemic) [Paliperidone, (±)-3-[2-[4-(6-fluoro-1,2-benzisoxazol-3-yl)-1-piperidinyl]ethyl]-6,7,8,9-tetrahydro-9-hydroxy-2-methyl-4H-pyrido[1,2-a]pyrimidin-4-one] | Insoluble |  | Insoluble |

— US20120100188A1, “SOLID STATE FORMS OF PALIPERIDONE SALTS AND PROCESS FOR THE PREPARATION THEREOF” (Actavis Group PTC ehf, priority 2009, published 2012)
